From patent publication US20240041042A1, “1-(PYRIDYL)-5-AZINYLPYRAZOLE DERIVATIVES, AND THEIR USE FOR CONTROL OF UNDESIRED PLANT GROWTH” (Bayer Aktiengesellschaft, priority 2020, published 2024)
Like-named read-outs stand apart in the source and are kept apart here.

Legend:
Format in all cases: in vivo
[1] = tested on: Amaranthus retroflexus (AMARE); assay: Post-emergence herbicidal action against AMARE
Outline: (§1)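 Greenhouse plants sprayed at the one-leaf stage, 2–3 weeks after sowing, with WP or EC formulations plus 0.5% additive at 600 l/ha water. Activity rated visually after about 3 weeks versus untreated controls (100% = dead, 0% = like control), at 320 g/ha or lower.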

Zea mays (ZEAMX) [2] = details: for Post-emergence action against ZEAMX in % (crop plant compatibility): 20 g/ha, effect in comparison to untreated controls; for Post-emergence action against ZEAMX in %: crop plant compatibility, effect vs untreated controls
Outline: (§2)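 One-leaf-stage crops (2–3 wk post-sowing, sandy loam, greenhouse) sprayed on green parts; 0.5% additive, 600 l/ha water. Rated by eye ~3 wk later, % vs untreated; suffixes a/b/c mark different dosages.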

Oryza sativa (ORYSA) [3] = details: crop plant compatibility
Outline: as §2

[4] = tested on: Triticum aestivum (TRZAS); details: crop plant compatibility, effect vs untreated controls
Outline: as §2

Zea mays (ZEAMX) [5] = details: pre-emergence, crop plant compatibility, in comparison to untreated controls
Outline: (§3)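 Scoring: visual, % of untreated control, about 3 weeks after a pre-emergence application to the soil surface. Application used WP or EC formulations diluted in water with 0.5% additive at 600 l/ha; dosage levels are marked by suffixes a, b and c.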

Oryza sativa (ORYSA) [6] = details: pre-emergence, crop plant compatibility, in comparison to untreated controls
Outline: as §3

Glycine max (GLXMA) = details: pre-emergence, crop plant compatibility, in comparison to untreated controls
Outline: as §3

[7] = tested on: Triticum aestivum (TRZAS); details: pre-emergence, crop plant compatibility, in comparison to untreated controls
Outline: as §3

[8] = tested on: Echinochloa crus-galli (ECHCG); assay: Post-emergence herbicidal action against ECHCG
Outline: as §1

Brassica napus (BRSNW) = details: crop plant compatibility, in comparison to untreated controls
Outline: as §3

[9] = tested on: Pharbitis purpurea (PHBPU); assay: Post-emergence herbicidal action against PHBPU
Outline: as §1

[10] = tested on: Polygonum convolvulus (POLCO); assay: Pre-emergence herbicidal action against POLCO
Outline: (§4)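 Pre-emergence soil-surface spray of compound, formulated as wettable powder or emulsion concentrate, in aqueous suspension or emulsion with 0.5% additive (600 l/ha; rate 320 g/ha or less). Activity rated visually after roughly 3 weeks in the greenhouse as a percentage of untreated controls, 0% meaning no difference.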

[11] = tested on: Verconica persica (VERPE); assay: Post-emergence herbicidal action against VERPE; details: 320 g/ha, VERPE
Outline: as §1

[12] = tested on: Polygonum convolvulus (POLCO); assay: Post-emergence herbicidal action against POLCO; details: dosage 320 g/ha
Outline: as §1

Avena fatua (AVEFA) [13] = assay: Post-emergence herbicidal action against AVEFA; details: 320 g/ha, visual rating about 3 weeks after treatment
Outline: as §1

Viola tricolor (VIOTR) [14] = assay: Post-emergence herbicidal action against VIOTR
Outline: as §1

[15] = tested on: Matricaria inodora (MATIN); assay: Post-emergence herbicidal action against MATIN
Outline: as §1

Viola tricolor (VIOTR) [16] = assay: Pre-emergence herbicidal action against VIOTR
Outline: as §4

[17] = tested on: Alopecurus myosuroides (ALOMY); assay: Pre-emergence herbicidal action against ALOMY; details: 320 g/ha; scored visually after about 3 weeks; 100% = plants have died
Outline: as §4

Lolium rigidum (LOLRI) [18] = assay: Post-emergence herbicidal action against LOLRI; details: dosage 320 g/ha
Outline: as §1

[19] = tested on: Matricaria inodora (MATIN); assay: Pre-emergence herbicidal action against MATIN
Outline: as §4

[20] = tested on: Abutilon theophrasti (ABUTH); assay: Post-emergence herbicidal action against ABUTH; details: visual rating about 3 weeks after treatment vs untreated controls (100% = plants have died, 0% = like control plants)
Outline: as §1

Setaria viridis (SETVI) [21] = assay: Post-emergence herbicidal action against SETVI
Outline: as §1

[22] = tested on: Abutilon theophrasti (ABUTH); assay: Pre-emergence herbicidal action against ABUTH; details: Dosage column 320 g/ha (title prints 3200 g/ha); scored visually after about 3 weeks; 100% = plants have died
Outline: as §4

[23] = tested on: Amaranthus retroflexus (AMARE); assay: Pre-emergence herbicidal action against AMARE; details: visual scoring after about 3 weeks vs untreated controls
Outline: as §4

Lolium rigidum (LOLRI) [24] = assay: Pre-emergence herbicidal action against LOLRI; details: dosage 320 g/ha
Outline: as §4

Setaria viridis (SETVI) [25] = assay: Pre-emergence herbicidal action against SETVI; details: dosage 320 g/ha
Outline: as §4

[26] = tested on: Echinochloa crus-galli (ECHCG); assay: Pre-emergence herbicidal action against ECHCG; details: dosage 320 g/ha
Outline: as §4

Avena fatua (AVEFA) [27] = assay: Pre-emergence herbicidal action against AVEFA; details: 320 g/ha, visual scoring after about 3 weeks vs untreated controls
Outline: as §4

[28] = 80 g/ha, visual rating about 3 weeks after treatment vs untreated controls (100% = plants have died, 0% = like control plants)
[29] = 20 g/ha, effect vs untreated controls
[30] = 80 g/ha, effect in comparison to untreated controls

COC(=O)[C@H](C)NC(=O)COc1nn(-c2ccnc(Cl)c2)c(-c2ccc(F)nc2)c1Br [III-18]
Post-emergence action against AMARE in % [1, 28]: 80% | Post-emergence action against ZEAMX in % (crop plant compatibility) (Zea mays (ZEAMX) [2]): 0% | Post-emergence action against ZEAMX in % (Zea mays (ZEAMX) [2]; 80 g/ha): 0% | Post-emergence action against ORYSA in % (Oryza sativa (ORYSA) [3]; [29]): 0% | Post-emergence action against ORYSA in % (Oryza sativa (ORYSA) [3]; [30]): 0% | Post-emergence action against TRZAS in % ([4]; 20 g/ha): 0% | Post-emergence action against TRZAS in % ([4]; 80 g/ha): 0% | Pre-emergence action against ZEAMX in % (Zea mays (ZEAMX) [5]; 80 g/ha): 20% | Pre-emergence action against ZEAMX in % (Zea mays (ZEAMX) [5]; 320 g/ha): 20% | Pre-emergence action against ORYSA in % (Oryza sativa (ORYSA) [6]; 80 g/ha): 0% | Pre-emergence action against ORYSA in % (Oryza sativa (ORYSA) [6]; 320 g/ha): 0% | Pre-emergence action against GLXMA in % (Glycine max (GLXMA); 80 g/ha): 0% | Pre-emergence action against TRZAS in % ([7]; 80 g/ha): 0% | Pre-emergence action against TRZAS in % ([7]; 320 g/ha): 20%

COc1cccnc1-n1nc(OCC(=O)O)c(Br)c1-c1ccc(F)nc1 [Example I-363]
Post-emergence action against ECHCG in % ([8]; dosage 320 g/ha): 80% | Post-emergence action against ZEAMX in % (Zea mays (ZEAMX) [2]; 80 g/ha): 0% | Post-emergence action against ZEAMX in % (Zea mays (ZEAMX) [2]; 320 g/ha): 0% | Post-emergence action against ORYSA in % (Oryza sativa (ORYSA) [3]; [30]): 0% | Post-emergence action against ORYSA in % (Oryza sativa (ORYSA) [3]; 320 g/ha, effect in comparison to untreated controls): 0% | Post-emergence action against TRZAS in % ([4]; 80 g/ha): 0% | Pre-emergence action against BRSNW in % (Brassica napus (BRSNW); 80 g/ha): 0% | Pre-emergence action against BRSNW in % (Brassica napus (BRSNW); 320 g/ha): 20% | Pre-emergence action against ZEAMX in % (Zea mays (ZEAMX) [5]; 80 g/ha): 0% | Pre-emergence action against ZEAMX in % (Zea mays (ZEAMX) [5]; 320 g/ha): 0% | Pre-emergence action against GLXMA in % (Glycine max (GLXMA); 80 g/ha): 0% | Pre-emergence action against GLXMA in % (Glycine max (GLXMA); 320 g/ha): 0% | Post-emergence action against PHBPU in % ([9]; dosage 320 g/ha): 80%

CCOC(=O)CSc1nn(-c2ccccn2)c(-c2cncc(F)c2)c1Cl [Example I-183]
Pre-emergence action against POLCO in % ([10]; dosage 80 g/ha): 80% | Pre-emergence action against POLCO in % ([10]; dosage 320 g/ha): 90% | Post-emergence action against VERPE in % [11]: 90% | Post-emergence action against POLCO in % [12]: 90% | Post-emergence action against AVEFA in % (Avena fatua (AVEFA) [13]): 90% | Post-emergence action against VIOTR in % (Viola tricolor (VIOTR) [14]; 80 g/ha): 90% | Post-emergence action against VIOTR in % (Viola tricolor (VIOTR) [14]; 320 g/ha): 90% | Post-emergence action against MATIN in % ([15]; dosage 80 g/ha): 80% | Post-emergence action against MATIN in % ([15]; dosage 320 g/ha): 80% | Pre-emergence action against VIOTR in % (Viola tricolor (VIOTR) [16]; 320 g/ha, Viola tricolor): 100% | Pre-emergence action against VIOTR in % (Viola tricolor (VIOTR) [16]; dosage 80 g/ha): 80% | Pre-emergence action against ALOMY [17]: 80% | Post-emergence action against LOLRI in % (Lolium rigidum (LOLRI) [18]): 90% | Post-emergence action against ECHCG in % ([8]; dosage 80 g/ha): 90% | Post-emergence action against ECHCG in % ([8]; dosage 320 g/ha): 90% | Pre-emergence action against MATIN in % ([19]; dosage 80 g/ha): 90% | Pre-emergence action against MATIN in % ([19]; dosage 320 g/ha): 90% | Post-emergence action against ABUTH in % ([20]; 80 g/ha): 80% | Post-emergence action against ABUTH in % ([20]; 320 g/ha): 80% | Post-emergence action against AMARE in % [1, 28]: 90% | Post-emergence action against AMARE in % ([1]; 320 g/ha, visual rating about 3 weeks after treatment): 90% | Post-emergence action against SETVI in % (Setaria viridis (SETVI) [21]; dosage 80 g/ha): 90% | Post-emergence action against SETVI in % (Setaria viridis (SETVI) [21]; dosage 320 g/ha): 90% | Pre-emergence action against ABUTH [22]: 80% | Pre-emergence action against AMARE in % ([23]; 80 g/ha): 80% | Pre-emergence action against AMARE in % ([23]; 320 g/ha): 100% | Pre-emergence action against LOLRI in % (Lolium rigidum (LOLRI) [24]): 90% | Pre-emergence action against SETVI in % (Setaria viridis (SETVI) [25]): 90% | Pre-emergence action against GLXMA in % (Glycine max (GLXMA); 80 g/ha): 0% | Pre-emergence action against TRZAS in % ([7]; 80 g/ha): 0% | Pre-emergence action against ECHCG in % [26]: 100% | Pre-emergence action against AVEFA in % (Avena fatua (AVEFA) [27]): 80% | Post-emergence action against PHBPU in % ([9]; dosage 80 g/ha): 80% | Post-emergence action against PHBPU in % ([9]; dosage 320 g/ha): 90%

COC(=O)[C@H](C)COC(=O)COc1nn(-c2ccnc(Cl)c2)c(-c2ccc(F)nc2)c1Br [III-17]
Post-emergence action against AMARE in % [1, 28]: 80% | Post-emergence action against ZEAMX in % (crop plant compatibility) (Zea mays (ZEAMX) [2]): 20% | Post-emergence action against ZEAMX in % (Zea mays (ZEAMX) [2]; 80 g/ha): 20% | Post-emergence action against ORYSA in % (Oryza sativa (ORYSA) [3]; [29]): 0% | Post-emergence action against ORYSA in % (Oryza sativa (ORYSA) [3]; [30]): 0% | Post-emergence action against TRZAS in % ([4]; 20 g/ha): 20% | Pre-emergence action against AMARE in % ([23]; 320 g/ha): 90% | Pre-emergence action against ZEAMX in % (Zea mays (ZEAMX) [5]; 80 g/ha): 20% | Pre-emergence action against ZEAMX in % (Zea mays (ZEAMX) [5]; 320 g/ha): 20% | Pre-emergence action against ORYSA in % (Oryza sativa (ORYSA) [6]; 80 g/ha): 0% | Pre-emergence action against ORYSA in % (Oryza sativa (ORYSA) [6]; 320 g/ha): 10% | Pre-emergence action against GLXMA in % (Glycine max (GLXMA); 80 g/ha): 0% | Pre-emergence action against TRZAS in % ([7]; 80 g/ha): 0% | Post-emergence action against PHBPU in % ([9]; dosage 80 g/ha): 80%
